From the NIST ThermoML archive (doi:10.1021/je0604232)
± gives the expanded uncertainty stated by the source.

Assay: molar heat capacity at constant pressure; xn = mol fraction of the nth substance listed
Conditions: 101 kPa, Liquid

NCCCO [3-amino-1-propanol] + O
molar heat capacity at constant pressure [J/K/mol]
Conditions | x1 = 0.0999 | x1 = 0.2001 | x1 = 0.3003 | x1 = 0.4015 | x1 = 0.4996 | x1 = 0.6006 | x1 = 0.7003 | x1 = 0.8003 | x1 = 0.8966 | x1 = 1
303.15 K | 94 ± 1 | 108 ± 1 | 120 ± 1 | 131 ± 1 | 143 ± 1 | 155 ± 1 | 168 ± 1 | 180 ± 2 | 193 ± 2 | 204 ± 2
308.15 K | 96 ± 1 | 111 ± 1 | 123 ± 1 | 135 ± 1 | 147 ± 1 | 159 ± 1 | 171 ± 2 | 184 ± 2 | 196 ± 2 | 207 ± 2
313.15 K | 97 ± 1 | 112 ± 1 | 124 ± 1 | 136 ± 1 | 148 ± 1 | 160 ± 1 | 172 ± 2 | 185 ± 2 | 197 ± 2 | 208 ± 2
318.15 K | 98 ± 1 | 113 ± 1 | 126 ± 1 | 138 ± 1 | 150 ± 1 | 162 ± 1 | 173 ± 2 | 186 ± 2 | 198 ± 2 | 208 ± 2
323.15 K | 99 ± 1 | 115 ± 1 | 128 ± 1 | 140 ± 1 | 152 ± 1 | 163 ± 1 | 175 ± 2 | 187 ± 2 | 199 ± 2 | 209 ± 2
328.15 K | 101 ± 1 | 117 ± 1 | 130 ± 1 | 142 ± 1 | 154 ± 1 | 166 ± 1 | 177 ± 2 | 189 ± 2 | 200 ± 2 | 210 ± 2
333.15 K | 103 ± 1 | 119 ± 1 | 132 ± 1 | 145 ± 1 | 157 ± 1 | 169 ± 1 | 179 ± 2 | 191 ± 2 | 202 ± 2 | 211 ± 2
338.15 K | 106 ± 1 | 122 ± 1 | 135 ± 1 | 148 ± 1 | 160 ± 1 | 172 ± 2 | 182 ± 2 | 193 ± 2 | 204 ± 2 | 213 ± 2
343.15 K | 110 ± 1 | 126 ± 1 | 139 ± 1 | 151 ± 1 | 163 ± 1 | 175 ± 2 | 185 ± 2 | 196 ± 2 | 206 ± 2 | 214 ± 2
348.15 K | 114 ± 1 | 130 ± 1 | 143 ± 1 | 155 ± 1 | 167 ± 1 | 179 ± 2 | 188 ± 2 | 198 ± 2 | 208 ± 2 | 216 ± 2
353.15 K | 119 ± 1 | 135 ± 1 | 147 ± 1 | 160 ± 1 | 172 ± 2 | 183 ± 2 | 192 ± 2 | 201 ± 2 | 210 ± 2 | 217 ± 2

CN(C)CCO [2-(N,N-dimethylamino)ethanol] + O
molar heat capacity at constant pressure [J/K/mol]
Conditions | x1 = 0.0997 | x1 = 0.1962 | x1 = 0.3003 | x1 = 0.3984 | x1 = 0.4983 | x1 = 0.6008 | x1 = 0.698 | x1 = 0.7981 | x1 = 0.8938 | x1 = 1
303.15 K | 103 ± 1 | 118 ± 1 | 132 ± 1 | 144 ± 1 | 156 ± 1 | 168 ± 1 | 179 ± 2 | 191 ± 2 | 202 ± 2 | 213 ± 2
308.15 K | 104 ± 1 | 119 ± 1 | 134 ± 1 | 146 ± 1 | 158 ± 1 | 170 ± 2 | 181 ± 2 | 193 ± 2 | 205 ± 2 | 215 ± 2
313.15 K | 105 ± 1 | 121 ± 1 | 136 ± 1 | 149 ± 1 | 161 ± 1 | 173 ± 2 | 185 ± 2 | 196 ± 2 | 208 ± 2 | 217 ± 2
318.15 K | 105 ± 1 | 123 ± 1 | 139 ± 1 | 152 ± 1 | 164 ± 1 | 177 ± 2 | 188 ± 2 | 199 ± 2 | 210 ± 2 | 219 ± 2
323.15 K | 107 ± 1 | 125 ± 1 | 141 ± 1 | 155 ± 1 | 168 ± 1 | 180 ± 2 | 191 ± 2 | 203 ± 2 | 213 ± 2 | 221 ± 2
328.15 K | 108 ± 1 | 127 ± 1 | 144 ± 1 | 158 ± 1 | 171 ± 2 | 184 ± 2 | 195 ± 2 | 206 ± 2 | 215 ± 2 | 222 ± 2
333.15 K | 109 ± 1 | 129 ± 1 | 147 ± 1 | 161 ± 1 | 175 ± 2 | 187 ± 2 | 199 ± 2 | 209 ± 2 | 217 ± 2 | 223 ± 2
338.15 K | 112 ± 1 | 132 ± 1 | 150 ± 1 | 165 ± 1 | 179 ± 2 | 192 ± 2 | 203 ± 2 | 213 ± 2 | 220 ± 2 | 223 ± 2
343.15 K | 114 ± 1 | 136 ± 1 | 155 ± 1 | 170 ± 2 | 184 ± 2 | 196 ± 2 | 208 ± 2 | 218 ± 2 | 223 ± 2 | 223 ± 2
348.15 K | 118 ± 1 | 140 ± 1 | 160 ± 1 | 176 ± 2 | 190 ± 2 | 203 ± 2 | 214 ± 2 | 223 ± 2 | 225 ± 2 | 224 ± 2
353.15 K | 123 ± 1 | 146 ± 1 | 166 ± 1 | 184 ± 2 | 198 ± 2 | 210 ± 2 | 221 ± 2 | 229 ± 2 | 228 ± 2 | 226 ± 2
